Series [1] has as its target association of YAP with endogenous TEAD1 and pan-TEAD (Homo sapiens, UniProt P28347). The experiment in a line: YAP co-immunoprecipitation (Co-IP) assay in H226 cells. Type of series: cell-based. The conditions noted are these: H226, 24 h, dose-dependent, FIG. 5A. The protocol:
H226 cells were treated with DMSO or TM2 for 24 h. The cells were then washed and harvested by cold DPBS. The cell pellets were isolated by centrifugation (500×g, 10 min) and lysed by lysis buffer (50 mM Tris-HCl pH 7.5, 10% Glycerol, 1% NP-40, 300 mM NaCl, 150 mM KCl, 5 mM EDTA, phosphatase inhibitor cocktail, complete EDTA-free protease inhibitors cocktail) on ice. After dilution with 50 mM Tris-HCl pH 7.5, 10% Glycerol, 1% NP-40, 5 mM EDTA, the protein samples were incubated with mouse anti-YAP antibody (sc-101199, Santa Cruz) overnight at 4° C. and immunoprecipitated with prewashed protein A/G beads (P5030-1, UBPBio) for another 4 h at 4° C. The bound proteins were washed with 0.1% PBST for three times and eluted with 1×SDS loading buffer and analyzed with SDS-PAGE. Anti-TEAD1 (1:1000, 12292S, Cell Signaling), anti-pan-TEAD (1:1000, 13295, Cell Signaling) or anti-YAP (1:1000, 140745, Cell Signaling) antibody were used to detect TEAD1, pan-TEAD or YAP, respectively. Secondary antibody was anti-rabbit (1:5000, 7074S, Cell Signaling).

Series [2] relates to DLD1 cells. The experiment in a line: Drug combination matrix TM2 + Trametinib, DLD1. Type of series: cell-based, Human. The conditions noted are these: 5 doses TM2 x 9 doses trametinib, day 5, Bliss, FIG. 8E. The protocol: The drug combination experiments were preformed using a drug combination matrix across 5 doses of TM2 (5 μM, 3-fold dilution) and 9 doses of Trametinib (10 μM, 3-fold dilution) in different tumor cell lines. Cell viability was determined at day 5 after the drugs administration by MTT. Drug synergy score was calculated followed Bliss rule. Synergy Score and Plot was generated by “Synergyfinder” package in R language.

The test system of the next series is PDL1 expression. The experiment in a line: PDL1 expression in cancer cell lines. Type of series: cell-based.
The subject of a further series is H226. The series is described as follows: H226 growth inhibition (SAR tables). The conditions noted are these: Homo sapiens, NCI-H226. Type of series: cell-based.
A further series concerns HCC95. The series is described as follows: HCC95 growth inhibition (SAR tables). The class given is cell-based.
A further series is described as follows: Metabolic stability HLM. Type of series: in vitro ADME, human.
The next series deals with H226 cells. The experiment in a line: Cell proliferation assay (MTT), H226. Particulars: Homo sapiens, NCI-H226, 144 h, read-out: IC50 H226 cell proliferation.
In series [3] the test system is DLD1 cells. The experiment in a line: Cell proliferation assay (MTT), DLD1. The conditions noted are these: CRC cell line, FIG. 8D.
Another series relates to NCI-H28 cells. The experiment in a line: Cell proliferation assay (MTT), NCI-H28. Particulars: Homo sapiens, NCI-H28, read-out: IC50 NCI-H28 cell proliferation.
In a further series the test system is NCI-H2052 cells. The experiment in a line: Cell proliferation assay (MTT), NCI-H2052. Particulars: Homo sapiens, NCI-H2052, read-out: IC50 NCI-H2052 cell proliferation.

Where only a bound is given, the exact number is not on record here.

association of YAP with endogenous TEAD1 and pan-TEAD, sequence (P28347 whole entry): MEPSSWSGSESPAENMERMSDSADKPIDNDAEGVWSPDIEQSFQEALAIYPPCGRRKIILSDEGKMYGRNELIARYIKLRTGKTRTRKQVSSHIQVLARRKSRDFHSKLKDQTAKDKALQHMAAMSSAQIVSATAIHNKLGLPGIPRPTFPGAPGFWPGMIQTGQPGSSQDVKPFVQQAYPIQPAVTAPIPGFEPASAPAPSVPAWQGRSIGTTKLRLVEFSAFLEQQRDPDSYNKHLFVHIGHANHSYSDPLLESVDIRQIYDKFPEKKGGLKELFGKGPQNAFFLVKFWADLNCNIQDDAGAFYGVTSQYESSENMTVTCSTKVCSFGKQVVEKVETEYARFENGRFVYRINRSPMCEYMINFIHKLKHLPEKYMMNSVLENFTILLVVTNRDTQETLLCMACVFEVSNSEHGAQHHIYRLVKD

Take `O=C(Nc1ccccc1)N1CCN(C(=O)c2cccc(OCCC3CCCCC3)c2)CC1` [TM2, 4-(3-(2-cyclohexylethoxy)benzoyl)-N-phenylpiperazine-1-carboxamide]: the “association of YAP with endogenous TEAD1 and pan-TEAD (in words)” value in series [1] is on record as “dramatically blocked”. Further, in the series with DLD1 cells [2], the “combination with MEK inhibitor trametinib, DLD1 (in words)” value is “strong inhibitory effects and substantial synergy”. In addition, the “PDL1 expression in cancer cell lines (in words)” value with PDL1 expression was “inhibits PDL1 expression”. In addition, the GI50 (usually the concentration that inhibits growth by half) in the series on H226 amounted to 73 nM. Further, the “HCC95: value at 1 μM” value in the series with HCC95 (1 μM) came to 37. In the series on HCC95 (10 μM), the “HCC95: value at 10 μM” value is listed as 65. For the same molecule, the Met stab HLM, 15 min in “Metabolic stability HLM” (15 min) is 44%. Also, in the series “Metabolic stability HLM” (60 min), the Met stab HLM, 60 min was 6%. Besides, the IC50 in the series on H226 cells was 26 nM; in the series with NCI-H28 cells, above 5000 nM; with NCI-H2052 cells, 157 nM. Besides, the “inhibition of DLD1 cell proliferation (in words)” value in the series with DLD1 cells [3] is “did not exhibit strong inhibition”.

The values above are taken from US20240279191A1, “SMALL MOLECULE INHIBITORS OF TEAD-YAP” (The General Hospital Corporation, priority 2021, published 2024).
